Measured values reported in PubChem BioAssay (NCI).
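Compound exposure: 48 hours, 5 concentrations, 96-well plates. At the TGI there is no net growth.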

Tests used:
Test in all cases: DTP human tumour cell line panel, 48 h
MOLT-4 leukemia = test system: MOLT-4 leukemia
NCI-H460 lung = test system: NCI-H460 lung
T-47D breast = test system: T-47D breast
PC-3 prostate = test system: PC-3 prostate
SF-539 CNS = test system: SF-539 CNS
UACC-62 melanoma = test system: UACC-62 melanoma
SK-MEL-5 melanoma = test system: SK-MEL-5 melanoma
SK-MEL-28 melanoma = test system: SK-MEL-28 melanoma
HS 578T breast = test system: HS 578T breast
UO-31 renal = test system: UO-31 renal
ACHN renal = test system: ACHN renal
HCT-15 colon = test system: HCT-15 colon
SF-295 CNS = test system: SF-295 CNS

SMILES	TGI (MOLT-4 leukemia)	TGI (NCI-H460 lung)	TGI (T-47D breast)	TGI (PC-3 prostate)	TGI (SF-539 CNS)	TGI (UACC-62 melanoma)	TGI (SK-MEL-5 melanoma)	TGI (SK-MEL-28 melanoma)	TGI (HS 578T breast)	TGI (UO-31 renal)	TGI (ACHN renal)	TGI (HCT-15 colon)	TGI (SF-295 CNS)
O=C1c2ccccc2C(=O)c2c1oc(=O)c1ccccc21	12.5 µM	10.9 µM	13.9 µM	19.2 µM	> 25 µM	8.36 µM	4.51 µM	17 µM	23.2 µM	11.4 µM	11.1 µM	7.5 µM	7.41 µM
O=C1OC2c3ccccc3C(=O)C2(c2ccccc2)N1c1ccccc1 (centres undefined)	> 200 µM	> 200 µM	> 200 µM	> 200 µM	> 200 µM	> 200 µM	> 200 µM	> 200 µM	> 200 µM	> 200 µM	> 200 µM	> 200 µM	> 200 µM
CC(=O)Nc1ccc(S(=O)(=O)[N-]C2C(=O)c3ccccc3C(=O)C2[n+]2ccccc2)cc1 (centres undefined)	47.2 µM	86.3 µM	> 100 µM	46.1 µM	33.3 µM	28.9 µM	15.3 µM	30.1 µM	62.4 µM	21.2 µM	30.7 µM	> 100 µM	28.8 µM
NC1=NN(c2ccccc2)C2(c3ccncc3C(=O)O)C1C(N)=NN2c1ccccc1 (centres undefined)	> 100 µM	> 100 µM	> 100 µM	> 100 µM	> 100 µM	> 100 µM	> 100 µM	> 100 µM	> 100 µM	> 100 µM	> 100 µM	> 100 µM	> 100 µM
O=NNc1cnccn1	876 µM	> 1250 µM	> 1250 µM	> 1250 µM	> 1250 µM	> 1220 µM	> 1250 µM	> 1250 µM	> 1250 µM	> 1250 µM	> 1250 µM	> 1250 µM	> 1250 µM
CC(=O)O[C@H]1CC[C@H]2[C@@H]3CCC4=C(C(=O)C=CC4(C)OC(C)=O)[C@H]3CC[C@]12C (some centres undefined)	> 100 µM	> 100 µM	> 100 µM	> 100 µM	> 100 µM	74.5 µM	> 100 µM	> 100 µM	> 100 µM	> 100 µM	> 100 µM	> 100 µM	> 100 µM
CC(C)CCNC(=O)c1ccc(CNC(=O)/C=C/c2csc(-c3ccccc3)n2)cc1	> 100 µM	> 100 µM	> 100 µM	> 100 µM	> 100 µM	> 100 µM	> 100 µM	> 100 µM	> 100 µM	58.6 µM	> 100 µM	> 100 µM	> 100 µM
O=C(N/N=C/C=C/c1ccc([N+](=O)[O-])o1)c1ccc(Br)s1	> 100 µM	> 100 µM	65.5 µM	49.7 µM	74.5 µM	49.5 µM	46.1 µM	52.3 µM	31.7 µM	48.9 µM	38.7 µM	35.7 µM	> 100 µM
